ChEMBL document CHEMBL1201862, “PubChem BioAssay data set” (2004)
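1) Cells in 96-well plates. 2) Compound, 48 h, 5 concentrations. 3) Linear interpolation between surrounding doses. 4) Unreached endpoint = highest concentration. The concentration for 50% growth inhibition is given as GI50.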 Calls of active or inactive are those of the source. Cut-off read from the data, not from the text of the source: active = GI50 up to about 1.1 µM and inactive = higher.

Tests used:
Assay in all cases: growth of human tumour cells (NCI), 48 h
K562 = system: K562
SW-620 = system: SW-620
SK-MEL-5 = system: SK-MEL-5
HOP-62 = system: HOP-62
SNB-75 = system: SNB-75
SF-268 = system: SF-268
OVCAR-8 = system: OVCAR-8
RXF 393 = system: RXF 393
SF-539 = system: SF-539
UO-31 = system: UO-31
NCI-H522 = system: NCI-H522
T47D = system: T47D
OVCAR-3 = system: OVCAR-3
M14 = system: M14
IGROV-1 = system: IGROV-1
SF-295 = system: SF-295
NCI-H23 = system: NCI-H23
MDA-MB-435 = system: MDA-MB-435
CCRF-CEM = system: CCRF-CEM
Malme-3M = system: Malme-3M
UACC-62 = system: UACC-62
SR = system: SR
TK-10 = system: TK-10
SN12C = system: SN12C
PC-3 = system: PC-3
Hs-578T = system: Hs-578T
KM12 = system: KM12
EKVX = system: EKVX
LOX IMVI = system: LOX IMVI
OVCAR-4 = system: OVCAR-4
OVCAR-5 = system: OVCAR-5
RPMI-8226 = system: RPMI-8226
CAKI-1 = system: CAKI-1
NCI/ADR-RES = system: NCI/ADR-RES
U-251 = system: U-251
MDA-MB-231 = system: MDA-MB-231
NCI-H460 = system: NCI-H460
DU-145 = system: DU-145
HCT-116 = system: HCT-116
SK-OV-3 = system: SK-OV-3
HCC 2998 = system: HCC 2998
COLO 205 = system: COLO 205
BT-549 = system: BT-549
HT-29 = system: HT-29
HOP-92 = system: HOP-92
HCT-15 = system: HCT-15
NCI-H226 = system: NCI-H226
UACC-257 = system: UACC-257
SNB-19 = system: SNB-19
MDA-N = system: MDA-N
ACHN = system: ACHN
A498 = system: A498
SK-MEL-2 = system: SK-MEL-2
MOLT-4 = system: MOLT-4
786-0 = system: 786-0
SK-MEL-28 = system: SK-MEL-28
MCF7 = system: MCF7
A549 = system: A549
HL-60 = system: HL-60

Measured: GI50

CN(C)CCn1c(=O)nc2c3c(c([N+](=O)[O-])ccc31)Nc1ccc(O)cc1-2
16.7 µM: HCT-15
inactive: K562 2.41 µM | SW-620 1.73 µM | SK-MEL-5 4.45 µM | HOP-62 2.47 µM | SNB-75 6.28 µM | SF-268 1.95 µM | OVCAR-8 1.82 µM | RXF 393 1.63 µM | SF-539 1.7 µM | UO-31 3.44 µM | NCI-H522 1.43 µM | T47D 2.37 µM | OVCAR-3 2.01 µM | M14 13.4 µM | IGROV-1 1.16 µM | SF-295 7.21 µM | NCI-H23 5.46 µM | MDA-MB-435 10.4 µM | Malme-3M 3.67 µM | UACC-62 4.5 µM | SR 1.12 µM | TK-10 4.66 µM | SN12C 2.61 µM | PC-3 4.25 µM | Hs-578T 3.95 µM | KM12 5.47 µM | EKVX 8.04 µM | LOX IMVI 1.27 µM | OVCAR-4 9.68 µM | OVCAR-5 15.1 µM | RPMI-8226 4.16 µM | CAKI-1 5.53 µM | NCI/ADR-RES 34.2 µM | U-251 1.53 µM | MDA-MB-231 2.07 µM | DU-145 4.36 µM | HCT-116 1.57 µM | SK-OV-3 15.3 µM | HCC 2998 2.48 µM | COLO 205 2.72 µM | BT-549 14.5 µM | HOP-92 2.69 µM | NCI-H226 3.37 µM | UACC-257 8.28 µM | SNB-19 2.03 µM | MDA-N 6.7 µM | ACHN 3.44 µM | A498 6.32 µM | SK-MEL-2 15.7 µM | 786-0 1.67 µM | SK-MEL-28 14.8 µM | MCF7 1.32 µM | A549 2.53 µM
active: CCRF-CEM 0.948 µM | NCI-H460 0.977 µM | HT-29 0.959 µM | MOLT-4 0.0638 µM

N=C(N)N/N=C/c1ccc(O)c(C(=O)O)c1
inactive: K562 > 100 µM | SW-620 > 100 µM | SK-MEL-5 > 100 µM | HOP-62 > 100 µM | SNB-75 3.22 µM | SF-268 > 100 µM | OVCAR-8 > 100 µM | RXF 393 > 100 µM | SF-539 > 100 µM | UO-31 > 100 µM | NCI-H522 > 100 µM | T47D > 100 µM | OVCAR-3 > 100 µM | M14 > 100 µM | IGROV-1 > 100 µM | SF-295 > 100 µM | NCI-H23 > 100 µM | MDA-MB-435 > 100 µM | CCRF-CEM > 100 µM | Malme-3M 99.1 µM | UACC-62 > 100 µM | SR > 100 µM | TK-10 > 100 µM | PC-3 > 100 µM | Hs-578T > 100 µM | KM12 > 100 µM | LOX IMVI > 100 µM | OVCAR-4 > 100 µM | OVCAR-5 > 100 µM | RPMI-8226 > 100 µM | CAKI-1 > 100 µM | NCI/ADR-RES > 100 µM | U-251 > 100 µM | MDA-MB-231 > 100 µM | NCI-H460 > 100 µM | DU-145 > 100 µM | HCT-116 > 100 µM | SK-OV-3 > 100 µM | HCC 2998 > 100 µM | COLO 205 > 100 µM | BT-549 > 100 µM | HT-29 32.3 µM | HOP-92 > 100 µM | NCI-H226 > 100 µM | UACC-257 > 100 µM | SNB-19 > 100 µM | MDA-N > 100 µM | ACHN > 100 µM | A498 > 100 µM | SK-MEL-2 > 100 µM | MOLT-4 > 100 µM | 786-0 > 100 µM | SK-MEL-28 > 100 µM | MCF7 > 100 µM | A549 > 100 µM
> 100 µM: HCT-15

COc1ccc(OC2OC(COC(c3ccccc3)(c3ccc(OC)cc3)c3ccc(OC)cc3)C(O)C(O)C2O)cc1 (stereo not given)
inactive: K562 2.84 µM | SW-620 3.77 µM | SK-MEL-5 5.06 µM | HOP-62 11.4 µM | SNB-75 3.32 µM | SF-268 3.39 µM | OVCAR-8 5.24 µM | SF-539 4.42 µM | UO-31 2.06 µM | NCI-H522 3.49 µM | T47D 6.76 µM | OVCAR-3 4.21 µM | M14 2.84 µM | IGROV-1 5.93 µM | SF-295 4.28 µM | NCI-H23 3.66 µM | MDA-MB-435 3.13 µM | CCRF-CEM 2.08 µM | Malme-3M 2.77 µM | UACC-62 3.43 µM | SR 3.74 µM | TK-10 5.33 µM | SN12C 2.51 µM | PC-3 2.09 µM | Hs-578T 3.96 µM | KM12 3.55 µM | EKVX 4.7 µM | LOX IMVI 1.8 µM | OVCAR-5 6.25 µM | RPMI-8226 4.47 µM | CAKI-1 4.75 µM | NCI/ADR-RES 3.48 µM | U-251 3.6 µM | MDA-MB-231 4.6 µM | NCI-H460 2.99 µM | DU-145 21.3 µM | HCT-116 3.26 µM | SK-OV-3 6.43 µM | HL-60 2.58 µM | HCC 2998 3.44 µM | COLO 205 3.85 µM | BT-549 12.5 µM | HT-29 2.4 µM | NCI-H226 12.3 µM | UACC-257 6.64 µM | SNB-19 9.66 µM | MDA-N 4.37 µM | ACHN 4 µM | A498 11.7 µM | SK-MEL-2 2.61 µM | MOLT-4 1.33 µM | 786-0 2.32 µM | SK-MEL-28 2.41 µM | MCF7 3.75 µM | A549 2.99 µM
2.86 µM: HCT-15
